# Experimental data published in patent US11510886B2, “Metformin amino acid compounds and methods of using the same” (Laboratorios Silancs S.A. DE C.V., priority 2016, dated 2022).
# “Also recorded” adds a separate entry of the source. Where a name gives a salt, the structure may show the parent alone. Read-outs that look alike come from different tables or passages of the source.
# Tests used:
# GPBP = molecular target: T1, GPBP (Mus musculus, UniProt Q9EQG9); assay: GPBP phosphorylation state in C2C12 myotubes (Western blot); format: cell-based, Mice; details: 3 hours (FIG. 65)
# T1 construct: endogenous in cells; host or cells: C2C12 myotubes
# T1 sequence (Q9EQG9 1-624): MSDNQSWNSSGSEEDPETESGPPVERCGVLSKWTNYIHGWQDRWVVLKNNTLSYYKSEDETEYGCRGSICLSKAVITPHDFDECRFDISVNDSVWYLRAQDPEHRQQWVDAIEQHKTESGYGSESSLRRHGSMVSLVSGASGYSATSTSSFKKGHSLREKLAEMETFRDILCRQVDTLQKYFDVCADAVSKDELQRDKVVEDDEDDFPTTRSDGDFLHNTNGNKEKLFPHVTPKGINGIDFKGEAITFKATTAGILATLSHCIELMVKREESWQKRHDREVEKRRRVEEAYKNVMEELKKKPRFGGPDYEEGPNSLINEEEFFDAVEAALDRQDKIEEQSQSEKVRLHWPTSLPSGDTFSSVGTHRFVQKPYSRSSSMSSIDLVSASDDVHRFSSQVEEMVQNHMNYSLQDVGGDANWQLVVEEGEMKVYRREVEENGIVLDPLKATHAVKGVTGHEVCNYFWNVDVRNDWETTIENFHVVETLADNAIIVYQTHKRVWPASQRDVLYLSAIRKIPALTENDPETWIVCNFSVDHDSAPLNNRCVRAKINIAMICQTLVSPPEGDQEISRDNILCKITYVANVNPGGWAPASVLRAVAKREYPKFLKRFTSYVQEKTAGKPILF
# Description: FIG. 65. […]. Similar quantities of each extract were analyzed using Western blot (SDS-PAGE and electrotransfer), with the indicated antibodies and chemiluminescence (ECL Prime, GE Healthcare). The arrow marks a dephosphorylated band, with higher abundance in SLN10-treated cells than in non-treated or SLN1-treated cells.
# GPBP and VAPA = assay: Colocalization of GPBP with VAPA in C2C12 cells; format: cell-based, Mice; details: C2C12, 10 mM, 16 hours; p=0.0093 Control vs. SLN1, p=0.0001 Control vs. SLN10, p=0.0283 SLN10 vs SLN1
# Description: FIG. 74A. […] In FIG. 74A, C2C12 cells were differentiated for 3 days in DMEM supplemented with 2% horse serum. […] Subsequently, cells were washed with PBS (3×5 minutes) and incubated with mouse secondary anti-IgG antibodies, conjugated with Alexa Fluor 488, and goat anti-IgG antibodies, conjugated with TRITC (Molecular Probes) for 1 hour at RM in the dark; then, cells were washed again with PBS (3×5 minutes) and mounted for confocal microscopy observation. Afterwards, the images obtained were analyzed with the WCIF ImageJ software to quantify colocalization quotient between GPBP and VAPA. In the third column, the points at which there are similar expression levels of both GPBP and VAPA appear in white.
# GLUT4 = assay: GLUT4-GFP transport to plasma membrane in NIH-3T3-L1 adipocytes; format: cell-based, Mice; details: confocal microscopy (FIG. 75)
# Description: FIG. 75. […] NIH-3T3-L1 cells were transfected with a construction expressing GLUT4 fused with Green Fluorescent Protein-GFP (Addgene). Transfected cells were selected by flow cytometry, taking advantage of GFP fluorescence, and cultured in DMEM supplemented with 10% FBS. […] Images were analyzed with the WCIF ImageJ software to detect colocalization of GPBP (red) with GLUT4 (green). […].
# RAW264.7 macrophages = assay: IL-10 expression in RAW264.7 macrophages stimulated with LPS and IFN-γ; format: cell-based
# Description: FIG. 92. […]. After several incubation times, cells were processed as shown in FIG. 79 for RT-qPCR analysis, and IL-10 relative quantification (RQ) was determined with a specific probe (Taqman®, Life Technologies) using HPRT-1 as a normalizer and non-stimulated cells as a reference point (time 0). In the Table in FIG. 92, the area under the curve (AUC) is indicated for each of the series.
# FIG. 93. The IL-10 expression depends on GPBP-1. […]. […] The silencing efficacy was tested by Western blot with RAW264.7 (WT) and pSi-GPBP-1 cell lysates (50 μg), using specific antibodies (right).
# FIG. 94. The IL-10 expression depends on cGPBP-1. In A, an assay scheme is shown; […]. […] In B, the relative expression of IL-10 in RAW264.7 macrophages cultured with conditioned media, obtained as specified in A, is shown. The analysis was carried out by quantitative RT and PCR, using HPRT-1 as a normalizer. In this case, the reference point were cells treated with a conditioned medium in absence of N26 (RQ=1 value), and the increased IL-10 expression was verified; the analysis included non-stimulated cells cultured in a fresh, non-conditioned medium (cells).
# [1] = STZ-diabetic male rats, mean ± SD; for Absolute body weight, Day −1 / Absolute body weight, Day −2 (distribution of groups): before first TI/RI administration
# [2] = molecular target: T2, GPBP, LKB1/STRADα/MO25, AMPK, AS160 (Homo sapiens, UniProt Q9Y5P4); assay: In vitro phosphorylation of GPBP with LKB1 complex, AMPK and AS160
# T2 sequence (Q9Y5P4 1-624): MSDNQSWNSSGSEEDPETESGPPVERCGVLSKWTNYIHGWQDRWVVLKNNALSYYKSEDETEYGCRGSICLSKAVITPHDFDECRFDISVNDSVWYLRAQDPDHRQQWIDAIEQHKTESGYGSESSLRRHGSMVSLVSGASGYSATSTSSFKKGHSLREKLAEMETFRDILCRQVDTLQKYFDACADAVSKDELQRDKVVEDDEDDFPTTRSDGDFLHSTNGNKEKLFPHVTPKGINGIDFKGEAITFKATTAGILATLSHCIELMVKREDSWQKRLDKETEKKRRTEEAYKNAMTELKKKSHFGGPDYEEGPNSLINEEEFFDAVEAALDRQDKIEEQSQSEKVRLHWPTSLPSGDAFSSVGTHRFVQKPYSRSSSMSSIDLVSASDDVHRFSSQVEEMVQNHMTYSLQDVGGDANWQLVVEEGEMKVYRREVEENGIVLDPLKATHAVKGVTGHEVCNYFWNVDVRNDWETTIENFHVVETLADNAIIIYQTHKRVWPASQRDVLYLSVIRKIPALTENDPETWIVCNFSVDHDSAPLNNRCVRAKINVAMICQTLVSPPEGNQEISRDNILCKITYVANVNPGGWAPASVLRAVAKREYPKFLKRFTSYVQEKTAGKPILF
compound,measurement,setting,value
"CN(C)C(=N)N=C(N)N [Metformin hydrochloride, metformin hydrochloride, reference compound]",GPBP phosphorylation state in myotubes,GPBP,barely altered the phosphorylation state
same,colocalization of GPBP with VAPA,GPBP and VAPA,reduced significantly
same,distribution of GPBP and GLUT4 in L1 adipocytes,GLUT4,low presence in secretory vesicles
same,IL-10 expression,"RAW264.7 macrophages; 10 mM, LPS and IFN-γ (FIG. 92)",increase IL-10 expression
same,dependence of IL-10 expression on GPBP expression,RAW264.7 macrophages; pSi-GPBP-1 macrophages (FIG. 93),virtually GPBP independent
same,Body weight (g) On administration day,"rat, in vivo, 250 mg/kg",190.39 ± 9.88 g
same,Body weight (g) On distribution day,"rat, in vivo, 250 mg/kg",186.93 ± 10.39 g
same,Body weight (g) On distribution day,"rat, in vivo, 750 mg/kg",189.03 ± 15.13 g
same,"Absolute body weight, Day −3 (before STZ administration)",[1]; baseline before STZ and before first TI/RI administration,231.30 ± 11.83 g
same,"Absolute body weight, Day −1",[1],210.43 ± 11.90 g
same,"Absolute body weight, Day −2 (distribution of groups)",[1],223.73 ± 10.88 g
same,"GPBP autophosphorylation in presence of LKB1 mix, AMPK and AS160",[2],activates GPBP phosphorylation; also recorded: stimulated GPBP autophosphorylation
metformin lysinate,GPBP phosphorylation state in myotubes,GPBP; listed as SLN10,induce GPBP dephosphorylation; also recorded: induced a remarkable GPBP dephosphorylation
same,colocalization of GPBP with VAPA,GPBP and VAPA,reduced significantly; also recorded: more intensely than SLN1
same,distribution of GPBP and GLUT4 in L1 adipocytes,GLUT4,widely located in the plasma membrane
same,IL-10 expression,RAW264.7 macrophages,increase IL-10 expression; also recorded: markedly superior
same,dependence of IL-10 expression on GPBP expression,RAW264.7 macrophages,depended largely on the GPBP expression
same,blood glucose level of animal ID93,"750 mg/kg, fifth day, six hours after the glucose overload",16 mg/dL
same,Body weight (g) On administration day,"Groups B-K, 250 mg/kg, Mean ± SD",189.83 ± 11.17 g
same,Body weight (g) On distribution day,"Groups B-K, 250 mg/kg, before dosing, Mean ± SD",184.42 ± 11.94 g
same,Body weight (g) On distribution day,"Groups L-U, 750 mg/kg, before dosing, Mean ± SD",186.73 ± 8.05 g
same,Body weight (g) On first administration day,"Groups L-U, 750 mg/kg, first column of this head, Mean ± SD",203.38 ± 13.38 g
same,Body weight (g) On first administration day,"Groups L-U, 750 mg/kg, second column of this head, Mean ± SD",192.83 ± 9.65 g
same,mortality and clinical signs,"glucokinetic groups, 750 mg/kg for five days, 750 mg/kg","hypothermia, lack of activity and tear excess"
same,mortality and clinical signs,"glucokinetic groups, 750 mg/kg for five days, listed as metformin lysinate, 750 mg/kg",severe hypoglycemia
same,mortality and clinical signs,"pharmacokinetic assay, single 250 mg/kg",respiratory noises
same,"Absolute body weight, Day −1",[1],212.73 ± 0.23 g
same,"Absolute body weight, Day −2 (distribution of groups)",[1],217.67 ± 9.71 g
same,"GPBP autophosphorylation in presence of LKB1 mix, AMPK and AS160","[2]; FIG. 73, listed as SLN10",inhibit it increasingly; also recorded: inhibited it progressively
same,incorporation of phosphate by LKB1/STRADα,[2]; GPBP present in the reaction mixture,inhibited the incorporation of phosphate by LKB1/STRADα efficiently
